Assay results as given in PMC6627331, “Identification of Small Molecule Inhibitors of Staphylococcus aureus RnpA” (Antibiotics, 2019).
≈ marks a conversion by molar mass, not a printed value. Read-outs that look alike come from different tables or passages of the source.

How the values were obtained:
[1] = biological target: T1, S. aureus RnpA (Staphylococcus aureus, UniProt P0A0H5); assay: RnpA-mediated in vitro spa mRNA degradation assay; format: biochemical
T1 construct: hexahistidine (His6) (N); made in house; host or cells: E. coli BL21 (DE3), plasmid pEXP5-nt
T1 sequence (P0A0H5 1-117): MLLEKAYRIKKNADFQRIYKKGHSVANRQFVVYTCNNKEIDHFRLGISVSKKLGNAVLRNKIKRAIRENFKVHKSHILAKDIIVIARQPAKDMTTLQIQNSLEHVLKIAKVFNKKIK
Experimental: RnpA-mediated RNA degradation assays were performed as previously described. Briefly, 1 pmol of spa mRNA was incubated with 5 pmol RnpA at 37 °C for 30 min in reaction buffer (50 mM Tris-HCl pH 8.0, 2 mM NaCl, 2 mM MgCl2) in the absence or presence of the indicated compound (≤500 µM). The inhibitory effects of the test compounds were calculated using Biorad ImageLab densitometry software to measure the signal intensity of the spa band in the negative control (spa alone), positive control (RnpA + spa + DMSO), and experimental samples (RnpA + spa + test compound) separated on a 1.2% formaldehyde-agarose gel. Background signal from the positive control sample sometimes resulted due to incomplete degradation of transcripts. Thus, the signal intensity of the positive control was taken into account when calculating the percent inhibition. The raw signals from the positive (+RnpA) and negative (-RnpA) controls were converted into percentage, by normalizing the positive control (+RnpA) signal to 0% RnpA inhibition and the negative control (-RnpA) to 100% RnpA inhibition. Similarly, the raw signals from the test compounds were reported as percent RnpA inhibition using the following equation: [(experimental−positive control)/(negative control−positive control)] × 100. […] To assess IC50, % RnpA degradation inhibition was plotted against compound concentration; a linear best fit equation was generated and utilized to calculate the IC50.

[2] = tested on: S. aureus UAMS-1; assay: Minimum inhibitory concentration (MIC) testing; format: cell-based, Staphylococcus aureus
Experimental: Minimum inhibitory concentration (MIC) testing was performed using to Clinical & Laboratory Standards Institute (CLSI) guidelines. Accordingly, individual wells of a 96-well microtiter plate were inoculated with 10^4 colony forming units (CFU) of S. aureus UAMS-1 containing two-fold increasing concentrations (0 to 256 μg·mL^−1) of the indicated antibiotic or putative RnpA inhibitor compound, and incubated at 37 °C for 16 h in MHB. The MIC was defined as the lowest concentration of compound in which there was no visible bacterial growth in the well.

[3] = biological target: T2, S. aureus RNase P (RnpA + rnpB) (Staphylococcus aureus, UniProt P0A0H5); assay: RnpA-dependent RNase P in vitro ptRNA^Tyr processing assay; format: biochemical
T2 construct: hexahistidine (His6) (N); made in house; host or cells: E. coli BL21 (DE3), plasmid pEXP5-nt
T2 sequence (P0A0H5 1-117): T1 sequence (P0A0H5 1-117)
Experimental: S. aureus RNase P activity assays were performed according to conditions described previously. Briefly, ptRNA^Tyr and rnpB RNA species were first denatured by heating to 95 °C for 5 min then slow cooled to room temperature. RNase P was reconstituted by mixing an equal molar ratio of rnpB and RnpA for 15 min at 37 °C. Precursor tRNA processing inhibition reactions were performed by mixing 1.25 pmol of reconstituted RNase P (RnpA + rnpB) with an equal volume of 2× low salt buffer (50 mM Tris-HCl pH 8.0, 5 mM MgCl2) in the presence of DMSO (negative control) or the indicated compound (≤500 µM) and incubated for 5 min at 37 °C. 5 pmol ptRNA^Tyr was added and the mixture was incubated at 37 °C 15 min. Reactions were stopped by adding 2× RNA loading dye and heating at 65 °C for 10 min. Each sample was electrophoresed in a 7 M urea/8% polyacrylamide gel then stained with ethidium bromide. The Biorad EZ Gel Doc imaging system was used to visualize the RNA and relative abundance of the mature tRNA^Tyr band (% processing) in the negative control or in samples containing the indicated compounds and analyzed using Biorad Image Lab densitometry software. The inhibitory activity of the indicated compounds were calculated as a % inhibition using the following equation: […].
To assess IC50, % RNase P processing inhibition was plotted against compound concentration and a linear best fit equation was generated to calculate the IC50.

[4] = tested on: HepG2 cells; assay: MTT human cell cytotoxicity testing; format: cell-based; conditions: 4× MIC exposure for 24 h; for MTT = % HepG2 cell survival: SAR figures; for % HepG2 Cell Survival: MTT
Experimental: Human HepG2 hepatocytes were seeded in individual wells of a 96-well cell-culture treated microtiter plate at a concentration of 1 × 10^5 cells per well and incubated in Dulbecco’s Modified Eagle Medium (DMEM) supplemented with 10% fetal bovine serum at 37 °C with 5% carbon dioxide overnight. Cells were then treated with DMSO (negative control) or the indicated agent for 24 h. MTT Cell Proliferation Assay Kits were used to assess viability according to the manufacturer’s recommendations (American Type Culture Collection; Manassas, VA, USA).

[5] = SAR figures, read-out: dIC50 = degradation IC50
[6] = Staphylococcus aureus, UAMS1, 16 h, S. aureus UAMS-1, 16 h in MHB, read-out: MIC
[7] = Staphylococcus aureus, UAMS1, SAR figures, S. aureus UAMS-1, read-out: MIC
[8] = SAR figures, in vitro ptRNA^Tyr processing, read-out: pIC50 = processing IC50 (converted)
[9] = in vitro ptRNA^Tyr processing, read-out: Processing IC50
[10] = Table S1, mupirocin synergy screening initial hits
[11] = Table S1, mupirocin synergy screening initial hits, read-out: processing IC50

SMILES	IC50 [1, 5]	MIC [2, 6]	MIC [2, 7]	IC50 [3, 8]	MTT = % HepG2 cell survival [4]	IC50 ([1]; read-out: Degradation IC50)	IC50 [3, 9]	further results
CC1CCN(C(=O)Nc2cccc(Cl)c2)CC1 [JC1b]	> 500 µM	> 256 µg/mL	> 256 µg/mL	> 500 µM				
CC1CCCCN1C(=O)Nc1ccccc1 (centres unmarked) [JC2b]	> 500 µM	> 256 µg/mL	> 256 µg/mL	> 500 µM				
Cc1ccc(NC(=O)N2CCCCC2C)cc1Cl (centres unmarked) [JC2c]	> 500 µM	> 256 µg/mL	> 256 µg/mL	> 500 µM				
CCC1CCCCN1C(=O)Nc1ccccc1 (centres unmarked) [JC3c]	> 500 µM	> 256 µg/mL	> 256 µg/mL	> 500 µM				
CCC1CCCCN1C(=O)Nc1ccc(Br)cc1 (centres unmarked) [JC3e]	> 500 µM	> 256 µg/mL	> 256 µg/mL	> 500 µM				
CCC1CCCCN1C(=O)Nc1cccc(C)c1 (centres unmarked) [JC3f]	> 500 µM	> 256 µg/mL	> 256 µg/mL	> 500 µM				
O=C(Nc1cc(Cl)cc(Cl)c1)N1CCCCC1 [JC4]		256 µg/mL (≈ 937 µM)	256 µg/mL (≈ 937 µM)	300 µM	71.4%	> 500 µM		
O=C(Nc1cc(Cl)cc(Cl)c1)N1CCCCCC1 [JC5]		128 µg/mL (≈ 446 µM)	128 µg/mL (≈ 446 µM)		65.3%	200 µM	225 µM	
O=C(Nc1cccc(Cl)c1)N1CCCCCC1 [JC5b]	> 500 µM	> 256 µg/mL	> 256 µg/mL	> 500 µM				
O=C(Nc1ccc(Cl)cc1)N1CCCCCC1 [JC5c]	> 500 µM	> 256 µg/mL	> 256 µg/mL	> 500 µM				
CN1CCN(C(=O)Nc2cc(Cl)cc(Cl)c2)CC1 [JC6]	> 500 µM	8 µg/mL (≈ 27.8 µM)	8 µg/mL (≈ 27.8 µM)	> 500 µM	61.6%	≥ 450 µM	≥ 450 µM	
CCN1CCN(C(=O)Nc2cc(Cl)cc(Cl)c2)CC1 [JC7]	> 500 µM	8 µg/mL (≈ 26.5 µM)	8 µg/mL (≈ 26.5 µM)	> 500 µM	75.7%	≥ 450 µM	≥ 450 µM	
CCCN1CCN(C(=O)Nc2cc(Cl)cc(Cl)c2)CC1 [JC8]	450 µM	1 µg/mL (≈ 3.16 µM)	1 µg/mL (≈ 3.16 µM)	> 500 µM	109%	≥ 450 µM	≥ 450 µM	% HepG2 Cell Survival [4]: 109.2%
CC1CN(C(=O)Nc2cc(Cl)cc(Cl)c2)CC(C)O1 (centres unmarked) [JC9]			32 µg/mL (≈ 106 µM)		82.5%	> 500 µM	> 500 µM	
O=C(Nc1ccc(Cl)cc1)c1c(NC(=O)C(F)(F)F)sc2c1CCCCC2 [JR1]		0.25 to 1 µg/mL (≈ 0.6 to 2.4 µM)	0.5 µg/mL (≈ 1.2 µM)		80.6%	62.5 µM	12 µM	% HepG2 Cell Survival ([4]; listed as ST016037): 81%; MIC ([2]; S. aureus UAMS-1, 16 h in MHB, listed as ST016037): 0.5 µg/mL (≈ 1.2 µM); MIC ([2]; Staphylococcus aureus, UAMS1, 16 h, Table S1, mupirocin synergy screening initial hits, read-out: MIC): 0.5 µg/mL
CC(=O)Nc1sc2c(c1C(=O)Nc1ccc(Cl)cc1)CCCCC2 [JR1b]		> 256 µg/mL	> 256 µg/mL		84.9%	> 250 µM	115 µM	
Nc1sc2c(c1C(=O)Nc1ccc(Cl)cc1)CCCCC2 [JR1c]		64 µg/mL (≈ 199 µM)	64 µg/mL (≈ 199 µM)		54.5%	175 µM	25 µM	
O=C(Nc1ccccc1Cl)c1c(NC(=O)C(F)(F)F)sc2c1CCCCC2 [JR2]	100 µM	0.25 to 1 µg/mL (≈ 0.6 to 2.4 µM)	0.5 µg/mL (≈ 1.2 µM)	2 µM	85.3%			
O=C(Nc1ccccc1Cl)c1c(NC(=O)C(F)(F)F)sc2c1CCCC2 [JR2b]	62 µM	> 256 µg/mL	> 256 µg/mL		59.5%		100 µM	
O=C(Nc1cccc(Cl)c1)c1c(NC(=O)C(F)(F)F)sc2c1CCCCC2 [JR3]	25 µM	0.25 to 1 µg/mL (≈ 0.6 to 2.4 µM)	0.25 µg/mL (≈ 0.6 µM)	7 µM	90.4%			
O=C(Nc1cccc(Cl)c1)c1c(NC(=O)C(F)(F)F)sc2c1CCCC2 [JR3b]	35 µM		0.5 µg/mL (≈ 1.24 µM)	6 µM	103.7%			
O=C(Nc1ccccc1)c1c(NC(=O)C(F)(F)F)sc2c1CCCCC2 [JR4]	63 µM			10 µM				
Cc1ccc(NC(=O)c2c(NC(=O)C(F)(F)F)sc3c2CCCCC3)cc1 [JR5]	115 µM	0.25 to 1 µg/mL (≈ 0.631 to 2.52 µM)	0.25 µg/mL (≈ 0.631 µM)	80 µM	82.8%			
O=S(=O)(Nc1cccc2cccnc12)c1ccccc1 [compound 5175130]								MIC [2, 10]: 14.22 µg/mL; IC50 [3, 11]: > 500 µM
c1ccc(Nc2nc(-c3ccccn3)cs2)nc1 [compound 5625000]								MIC [2, 10]: 1.59 µg/mL; IC50 [3, 11]: > 500 µM
Cc1cccc(/C=C/c2ccc3cccc(O)c3n2)c1O [compound 6634438]								MIC [2, 10]: 10.40 µg/mL; IC50 [3, 11]: < 62.5 µM
C/C(=C\C(=O)OCCCCCCCCC(=O)O)C[C@@H]1OC[C@H](C[C@@H]2O[C@H]2[C@@H](C)[C@H](C)O)[C@@H](O)[C@H]1O [mupirocin, reference compound]		0.125 µg/mL (≈ 0.25 µM)						
